For orientation: IC50 means the concentration needed to halve the response being measured.

Structures are written as SMILES.

In one assay the test system is OCI-AML3 cells. Nature of the assay: Proliferation assay (spheroid confluence, 8 days), OCI-AML3. The following applies: Homo sapiens, OCI-AML-3, OCI-AML3; read-out: spheroid assay_OCI-AML3 IC50. The class given is cell-based, human. The protocol: The anti-proliferative effect of menin/MLL protein/protein interaction inhibitor test compounds was assessed in human leukemia cell lines. The cell line MOLM14 harbors a MLL translocation and expresses the MLL fusion protein MLL-AF9, respectively, as well as the wildtype protein from the second allele. OCI-AML3 cells that carry the NPM1c gene mutation were also tested. […] KO-52 was used as a control cell line containing two MLL (KMT2A) wildtype alleles in order to exclude compounds that display general cytotoxic effects.
MOLM14 cells were cultured in RPMI-1640 (Sigma Aldrich) supplemented with 10% heat-inactivated fetal bovine serum (HyClone), 2 mM L-glutamine (Sigma Aldrich) and 50 μg/ml gentamycin (Gibco). KO-52 and OCI-AML3 cell lines were propagated in alpha-MEM (Sigma Aldrich) supplemented with 20% heat-inactivated fetal bovine serum (HyClone), 2 mM L-glutamine (Sigma Aldrich) and 50 μg/ml gentamycin (Gibco).
In order to assess the anti-proliferative effects, 200 MOLM14 cells, 200 OCI-AML3 cells or 300 KO-52 cells were seeded in 200 μl media per well in 96-well round bottom, ultra-low attachment plates (Costar, catalogue number 7007). Cell seeding numbers were chosen based on growth curves to ensure linear growth throughout the experiment. Test compounds were added at different concentrations and the DMSO content was normalized to 0.3%. Cells were incubated for 8 days at 37° C. and 5% CO2. Spheroid like growth was measured in real-time by live-cell imaging (IncuCyteZOOM, Essenbio, 4×objective) acquiring images at day 8. Confluence (%) as a measure of spheroid size was determined using an integrated analysis tool.
In order to determine the effect of the test compounds over time, the confluence in each well as a measure of spheroid size, was calculated. Confluence of the highest dose of a reference compound was used as baseline for the LC (Low control) and the confluence of DMSO treated cells was used as 0% cytotoxicity (High Control, HC).
Absolute IC50 values were calculated as percent change in confluence as follows:
LC=Low Control: cells treated with e.g. 1 μM of the cytotoxic agent staurosporin, or e.g. cells treated with a high concentration of an alternative reference compound
HC=High Control: Mean confluence (%) (DMSO treated cells)
% Effect=100−(100*(Sample−LC)/(HC−LC))
GraphPad Prism (version 7.00) was used to calculate the IC50. Dose-response equation was used for the plot of % Effect vs Log10 compound concentration with a variable slope and fixing the maximum to 100% and the minimum to 0%.
Consider `CC(=O)NC1CCC(N2CC[C@@H](Cc3cn(-c4ccc(F)cc4C(=O)N(C)C(C)C)c4cncc(C)c34)C2)CC1` (some centres unmarked) [Compound 201], for which the IC50 worked out at 35 nM.
Same read-out and setting: the result for `Cc1cncc2c1c(C[C@@H]1CCN(C[C@H]3CCNC(=O)CC3)C1)cn2-c1ccc(F)cc1C(=O)N1[C@H](C)CC[C@H]1C` (single isomer, unassigned) [Compound 352a] reads 11 nM; that for `CC(=O)N1CCC(N2CC[C@H](Cc3cn(-c4ccc(F)cc4C(=O)N(C)C(C)C)c4cncc(C)c34)C2)C(C)C1` (single isomer, unassigned) [Compound 137a], 23 nM.
As to `COCC(=O)N1CCC(CN2CC[C@@H](Cc3cn(-c4ccc(F)cc4C(=O)N(C)C(C)C)c4cncc(C)c34)C2)CC1` (single isomer, unassigned) [Compound 136], the concentration for half-maximal inhibition (IC50) was determined as 54 nM.
As to `CC(=O)N1CCC(N2CC[C@H](Cc3cn(-c4ccc(F)cc4C(=O)N(C)C(C)C)c4cncc(C)c34)C2)CC1` (single isomer, unassigned) [Compound 81], the IC50 was 100 nM.
Take `CNC(=O)[C@H]1CC[C@H](CN2CC([C@H](C)c3cn(-c4ccc(F)cc4C(=O)N(C)C(C)C)c4cncc(C)c34)C2)CC1` (single isomer, unassigned) [Compound 164b]: the IC50 turned out to be 12 nM.
The same measure, in the same setting: the result for `Cc1cncc2c1c(C[C@@H]1CCN(C[C@@H]3CCNC(=O)CC3)C1)cn2-c1ccc(F)cc1C(=O)N1[C@H](C)CC[C@H]1C` (single isomer, unassigned) [Compound 352b] reads 263 nM; that for `CN=S(=O)(c1cc(F)ccc1-n1cc(CC2CCN(CC3CCOCC3)C2)c2c(C)cncc21)C(C)C` (single isomer, unassigned) [Compound 77b], 128 nM; that for `Cc1cncc2c1c(C[C@@H]1CCN(CC3CCN(C(=O)C(C)C)CC3)C1)cn2-c1ccc(F)cc1C(=O)N1CCC[C@H]1CO` [Compound 328], 52 nM.
Still for that read-out and setting: the figure for `Cc1cncc2c1c(CC1CCN(CC3CCN(C(=O)C(C)(C)O)CC3)C1)cn2-c1ccc(F)cc1C(=O)N(C)C(C)C` (single isomer, unassigned) [Compound 125] is 12 nM.
`Cc1cncc2c1c(C[C@@H]1CCN([C@@H](CO)C3CCCOC3)C1)cn2-c1ccc(F)cc1C(=O)N(C)C(C)C` (single isomer, unassigned) [Compound 198a]: the IC50 came out at 15 nM.
Same read-out and setting: the figure for `CC(=O)N1CCC(C)(CN2CC(Cc3cn(-c4ccc(F)cc4C(=O)N(C)C(C)C)c4cncc(C)c34)C2)CC1` [Compound 84] is 120 nM.
Take `CC(=O)N1CCC(CN2CCC(Cc3cn(-c4ccc(F)cc4C(=O)N(C)C(C)C)c4cncc(C)c34)C2C)CC1` (centres unmarked) [Compound 228]: the concentration for half-maximal inhibition (IC50) amounted to 11 nM.
As to `CC(=O)N1CCC(C(C)N2CCC(Cc3cn(-c4ccc(F)cc4C(=O)N(C)C(C)C)c4cncc(C)c34)C2)CC1` (single isomer, unassigned) [Compound 116a], the 50% inhibitory concentration (IC50) was found to be 9 nM.
On the same count and under the same terms, the result for `Cc1cncc2c1c(CC1CCN(CC3CCN(C(=O)[C@H](C)O)CC3)C1)cn2-c1ccc(F)cc1C(=O)N(C)C(C)C` (single isomer, unassigned) [Compound 86] reads 23 nM; that for `Cc1cncc2c1c(C[C@@H]1CCN([C@H](CO)C3CCCOC3)C1)cn2-c1ccc(F)cc1C(=O)N(C)C(C)C` (single isomer, unassigned) [Compound 198b], 156 nM.
On the same count and under the same terms, the figure for `Cc1cncc2c1c(CC1CCN(CC3CCN(C(=O)[C@@H](C)O)CC3)C1)cn2-c1ccc(F)cc1C(=O)N(C)C(C)C` (single isomer, unassigned) [Compound 85] is 22 nM.

The same assay, now with this note: OCI-AML3; read-out: spheroid assay_OCI-AML3 IC50.
`Cc1cncc2c1c(CC1CCN(CC3CCC(=O)N(C)CC3)C1)cn2-c1ccc(F)cc1C(=O)N(C)C(C)C` (single isomer, unassigned) [Compound 184b]: the IC50 was 138 nM.
On to `Cc1cncc2c1c(C[C@@H]1CCN(CC3CCNC(=O)CC3)C1)cn2-c1ccc(F)cc1C(=O)N1CCC[C@H]1C` (single isomer, unassigned) [Compound 353a], for which the half-maximal inhibitory concentration (IC50) amounted to 11 nM.
For the compound `Cc1cncc2c1c(CC1CCN(CC3CCC(=O)N(C)CC3)C1)cn2-c1ccc(F)cc1C(=O)N(C)C(C)C` (single isomer, unassigned) [Compound 184a], the IC50 worked out at 26 nM.

Source of the values: patent US20230250096A1, “SUBSTITUTED PHENYL-1H-PYRROLO[2,3-c] PYRIDINE DERIVATIVES” (Janssen Pharmaceutica NV, priority 2021, published 2023).
